Experimental data as given in publication PMC12624794, “Mechanism of inhibition of acid-mediated transthyretin aggregation by designed peptides” (The Journal of Biological Chemistry, 2025).

Experiments:
seeded TTR aggregation = conditions: extracted amyloidogenic fibrils from patients as seeds, in vitro; cited from earlier work
[1] = system: patients with TTR amyloidosis; conditions: TTR amyloidosis diagnosed at a later stage; cited from earlier work
Description: (§1) However, the efficacy of tafamidis is reduced for patients with TTR amyloidosis diagnosed at a later stage, when severe organ damage caused by TTR aggregates cannot be reversed ([12]).

TTR tetramer = conditions: cited from earlier work
Description: as §1

[2] = target: T1, TTR^F (C10S-trifluoroacetyl-S85C TTR) (Homo sapiens, UniProt P02766, C30S/S105C); assay: Real-time 19F-NMR aggregation kinetics at 310 K, pH 4.4 (three-state model); assay type: biochemical; conditions: 1 μM peptide; pH 4.4, 310 K
T1 construct: made in house
Method: At acidic pH, tetramer dissociation is favored, the misfolding of the monomeric intermediate is facilitated, and the downhill aggregation is accelerated ([1]). We used a previously reported ^19F-labeled TTR construct, C10S-trifluoroacetyl-S85C (denoted as TTR^F), to quantify TTR aggregation kinetics using real-time ^19F-NMR. […] To quantify how the presence of peptides alters TTR aggregation kinetics, we added 1 μM of each TabH2 and TabF2 as well as 1 μM ffTAD1 to 2.5 μM TTR^F (tetramer concentration) at pH 4.4 and 310 K and monitored time-dependent population kinetics for tetramer, monomer, and NMR-invisible aggregates (Fig. 3, A and B). […]
To gain kinetic insights into the aggregation pathway, we fit the time-dependent aggregation data of TTR^F using a previously reported three-state kinetic model, tetramer ↔ monomer ↔ aggregate ([18]), where tetramer and monomer are NMR-visible, and aggregates are NMR-invisible. […] Using this model, fits of the time-dependent population changes determined from peak areas yield four first-order apparent rates. […]
^19F-NMR spectra were acquired using Bruker Avance 600 or Avance 700 MHz spectrometers as previously described ([18]). […] Weighted average chemical shift perturbations (CSPs) for backbone amides were calculated using (Δδ^1H)^2+(Δδ^15N/5)^2 , where Δ δ means chemical shift differences for either ^1H or ^15N with and without peptides.

SMILES	inhibition of seeded TTR aggregation (seeded TTR aggregation)	efficacy in late-diagnosed patients [1]	binding to TTR tetramer (TTR tetramer)	effect on tetramer dissociation (TTR tetramer; stabilization of the tetramer)	reduction of steady-state population of NMR-invisible aggregates vs TTR^F-only control [2]
O=C(O)c1ccc2nc(-c3cc(Cl)cc(Cl)c3)oc2c1 [Tafamidis]	does not effectively inhibit seeded TTR aggregation	reduced	binds to the central cavity of the TTR tetramer	suppresses dissociation to monomers	–
CC(C)[C@H](NC(=O)[C@H](C)NC(=O)[C@H](Cc1ccc(O)cc1)NC(=O)[C@H](CO)NC(=O)[C@@H](NC(=O)[C@@H]1CCCN1C(=O)[C@H](CC(N)=O)NC(=O)[C@@H](NC(=O)[C@@H](NC(=O)[C@H](Cc1ccc(O)cc1)NC(=O)[C@H](CO)NC(=O)[C@H](CCCNC(=N)N)NC(=O)[C@H](CCCNC(=N)N)NC(=O)[C@H](CCCNC(=N)N)NC(=O)[C@H](CCCNC(=N)N)NC(=O)[C@H](CCC(=O)O)NC(=O)[C@@H](NC(=O)[C@H](CO)NC(=O)CNC(=O)CNC(=O)CNC(=O)[C@H](CCC(=O)O)NC(=O)[C@@H](NC(=O)[C@H](Cc1ccccc1)NC(=O)[C@H](CCC(=O)O)NC(=O)[C@@H](NC(=O)[C@H](Cc1ccccc1)NC(=O)[C@@H]1CCCN1C(=O)[C@H](Cc1c[nH]cn1)NC(=O)[C@H](C)NC(=O)[C@@H](NC(=O)[C@H](Cc1c[nH]cn1)NC(=O)[C@H](CCCNC(=N)N)NC(=O)[C@H](CCCNC(=N)N)NC(=O)[C@H](CCCNC(=N)N)NC(=O)[C@H](CCCNC(=N)N)NC(=O)[C@H](Cc1c[nH]cn1)NC(=O)[C@H](Cc1c[nH]cn1)NC(=O)[C@H](Cc1c[nH]cn1)NC(=O)[C@H](Cc1c[nH]cn1)NC(=O)[C@H](Cc1c[nH]cn1)NC(=O)[C@@H](N)Cc1c[nH]cn1)C(C)C)C(C)C)[C@@H](C)O)[C@@H](C)O)C(C)C)[C@@H](C)O)[C@@H](C)O)C(=O)N[C@H](C(=O)O)[C@@H](C)O [ffTAD1]	–	–	–	–	~8%
